Laboratory results as given in patent publication US7608577B2, “Peptidyl ketones as inhibitors of DPIV” (OSI Pharmaceuticals, Inc., priority 2001, dated 2009).

Tests used:
[1] = target: T1, Dipeptidyl peptidase I (DP I, cathepsin C) (Rattus norvegicus, UniProt P80067); experiment: Cross reacting enzymes: dipeptidyl peptidase I; assay type: biochemical; conditions: MES buffer pH5.6, 30° C.
T1 construct: purchased Qiagen GmbH, Hilden, Germany
T1 sequence (P80067 25-462): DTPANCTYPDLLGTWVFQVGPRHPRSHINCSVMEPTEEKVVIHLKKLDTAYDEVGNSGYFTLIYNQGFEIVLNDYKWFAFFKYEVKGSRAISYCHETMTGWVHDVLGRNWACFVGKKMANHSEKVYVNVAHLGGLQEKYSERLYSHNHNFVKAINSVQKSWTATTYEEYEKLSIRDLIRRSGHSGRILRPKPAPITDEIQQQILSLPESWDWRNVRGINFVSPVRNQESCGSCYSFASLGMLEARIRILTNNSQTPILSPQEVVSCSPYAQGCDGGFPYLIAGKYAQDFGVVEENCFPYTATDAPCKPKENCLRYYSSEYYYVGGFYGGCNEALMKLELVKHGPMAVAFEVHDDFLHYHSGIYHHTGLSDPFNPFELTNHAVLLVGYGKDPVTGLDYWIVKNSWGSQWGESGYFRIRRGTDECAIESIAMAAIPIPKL
Method: DP I or cathepsin C is a lysosomal cysteine protease which cleaves off dipeptides from the N-terminus of their substrates (Gutman, H. R. & Fruton, J. S., 1948, J. Biol: Chem., 174, 851-858). It is classified as a cysteine protease. The enzyme used was purchased from Qiagen (Qiagen GmbH, Hilden, Germany). In order to get a fully active enzyme, the enzyme was diluted 1000 fold in MES buffer pH5.6 (40 mM MES, 4 mM DTT, 4 mM KCl, 2 mM EDTA, 0.015% Brij) and pre-incubated for 30 min at 30° C.
50 μl solution with the test compounds in a concentration range of 1*10^−5 M-1*10^−7 M was admixed with 110 μl buffer-enzyme-mixture. The assay mixture was pre-incubated at 30° C. for 15 min. After pre-incubation, 100 μl histidylseryl-βnitroaniline (2*10^−5M) was added and measurement of yellow color development due to β-nitroaniline release was performed at 30° C. and […] for 10 min, using a plate reader (HTS7000 plus, Applied Biosystems, Weiterstadt, Germany).
The IC 50-values were calculated using Graphit 4.0.15 (Erithacus Software, Ltd., UK).

[2] = target: porcine DPIV (Sus scrofa, UniProt P22411); experiment: Determination of IC50 values against DPIV; assay type: biochemical; conditions: Gly-Pro-pNA 0.4 mM, APN, 30° C., HEPES pH7.6, read-out: IC50
Method: 100 μl inhibitor stock solution was mixed with 100 μl buffer (HEPES pH7.6) and 20 μl diluted porcine DPIV and preincubated at 30° C. Reaction was started by addition of a mixture of 50 μl substrate (Gly-Pro-pNA, final concentration 0.4 mM) and 2 μl APN stock solution. Formation of the product pNA was measured at 405 nm and 30° C. over 10 min using the HTS 7000Plus plate reader (Perkin Elmer) and slopes were calculated. The final inhibitor concentrations ranged between 1 mM and 30 nM. For calculation of IC50 GraFit 4.0.13 (Erithacus Software) was used.

[3] = target: T2, plasma DPIV activity (Rattus norvegicus, UniProt P14740); experiment: DPIV inhibiting activity after intravasal and oral administration to Wistar rats; assay type: in vivo; conditions: 100 mg/kg; for In vivo DPIV-inhibition at tmax, i.v.: intra-vasal (intra-arterial); for In vivo DPIV-inhibition at tmax, p.o.: oral
T2 construct: from tissue; host or cells: plasma of Wistar rats
Method: Male Wistar rats (Shoe: Wist(Sho)) with a body weight ranging between 250 and 350 g were purchased from Tierzucht Schönwalde (Schönwalde, Germany).
Animals were single-caged under conventional conditions with controlled temperature (22±2° C.) on a 12/12 hours light/dark cycle (light on at 06:00 AM). Standard pelleted chow (ssniff® Soest, Germany) and tap water acidified with HCl were allowed ad libitum.
After ≧one week of adaptation at the housing conditions, catheters were implanted into the carotid artery of Wistar rats under general anaesthesia (i.p. injection of 0.25 ml/kg b.w. ROMPUN® [2%], BayerVital, Germany and 0.5 ml/kg b.w. Ketamin 10, Atarost GmbH & Co., Twistringen, Germany). The animals were allowed to recover for one week. The catheters were flushed with heparin-saline (100 IU/ml) three times per week. In case of catheter dysfunction, a second catheter was inserted into the contralateral carotid artery of the respective rat. After one week of recovery from surgery, this animal was reintegrated into the study. In case of dysfunction of the second catheter, the animal was withdrawn from the study. A new animal was recruited and the experiments were continued in the planned sequence, beginning at least 7 days after catheter implantation.
Rats with intact catheter function were administered placebo (1 ml saline, 0.154 mol/l) or test compound via the oral and the intra-vasal (intra-arterial) route. After overnight fasting, 100 μl samples of heparinised arterial blood were collected at −30, −5, and 0 min. The test substance was dissolved freshly in 1.0 ml saline (0.154 mol/l) and was administered at 0 min either orally via a feeding tube (75 mm; Fine Science Tools, Heidelberg, Germany) or via the intra-vasal route. In the case of oral administration, an additional volume of 1 ml saline was injected into the arterial catheter. In the case of intra-arterial administration, the catheter was immediately flushed with 30 μl saline and an additional 1 ml of saline was given orally via the feeding tube.
After application of placebo or the test substances, arterial blood samples were taken at 2.5, 5, 7.5, 10, 15, 20, 40, 60 and 120 min from the carotid catheter of the conscious unrestrained rats. All blood samples were collected into ice cooled Eppendorf tubes (Eppendorf-Netheler-Hinz, Hamburg, Germany) filled with 10 μl 1M sodium citrate buffer (pH 3.0) for plasma DPIV activity measurement. Eppendorf tubes were centrifuged immediately (12000 rpm for 2 min, Hettich Zentrifuge EBA 12, Tuttlingen; Germany): The plasma fractions were stored on ice until analysis or were frozen at −20° C. until analysis. […]
Statistical evaluations and graphics were performed with PRISM® 3.02 (GraphPad Software, Inc.). All parameters were analysed in a descriptive manner including mean and SD.

T2 sequence (P14740 38-767 limits assumed): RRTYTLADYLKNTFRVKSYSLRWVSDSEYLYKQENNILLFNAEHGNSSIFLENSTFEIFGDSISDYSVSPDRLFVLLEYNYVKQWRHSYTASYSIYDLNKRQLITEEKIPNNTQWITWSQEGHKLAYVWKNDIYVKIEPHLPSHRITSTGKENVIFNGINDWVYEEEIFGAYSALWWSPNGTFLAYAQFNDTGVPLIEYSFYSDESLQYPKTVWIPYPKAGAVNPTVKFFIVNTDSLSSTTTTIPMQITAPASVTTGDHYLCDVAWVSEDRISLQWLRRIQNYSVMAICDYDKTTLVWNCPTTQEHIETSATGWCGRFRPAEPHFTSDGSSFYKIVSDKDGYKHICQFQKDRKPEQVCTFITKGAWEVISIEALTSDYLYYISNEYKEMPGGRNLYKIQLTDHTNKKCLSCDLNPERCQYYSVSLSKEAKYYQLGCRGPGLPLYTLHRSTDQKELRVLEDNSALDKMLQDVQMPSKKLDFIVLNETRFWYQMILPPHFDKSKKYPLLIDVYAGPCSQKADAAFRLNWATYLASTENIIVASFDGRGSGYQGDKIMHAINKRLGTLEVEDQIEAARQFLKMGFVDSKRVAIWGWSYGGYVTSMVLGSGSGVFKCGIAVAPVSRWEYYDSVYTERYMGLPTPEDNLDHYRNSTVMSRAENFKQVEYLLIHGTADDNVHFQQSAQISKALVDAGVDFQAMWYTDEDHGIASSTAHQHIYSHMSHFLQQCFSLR
Chain of porcine DPIV (P22411 whole entry): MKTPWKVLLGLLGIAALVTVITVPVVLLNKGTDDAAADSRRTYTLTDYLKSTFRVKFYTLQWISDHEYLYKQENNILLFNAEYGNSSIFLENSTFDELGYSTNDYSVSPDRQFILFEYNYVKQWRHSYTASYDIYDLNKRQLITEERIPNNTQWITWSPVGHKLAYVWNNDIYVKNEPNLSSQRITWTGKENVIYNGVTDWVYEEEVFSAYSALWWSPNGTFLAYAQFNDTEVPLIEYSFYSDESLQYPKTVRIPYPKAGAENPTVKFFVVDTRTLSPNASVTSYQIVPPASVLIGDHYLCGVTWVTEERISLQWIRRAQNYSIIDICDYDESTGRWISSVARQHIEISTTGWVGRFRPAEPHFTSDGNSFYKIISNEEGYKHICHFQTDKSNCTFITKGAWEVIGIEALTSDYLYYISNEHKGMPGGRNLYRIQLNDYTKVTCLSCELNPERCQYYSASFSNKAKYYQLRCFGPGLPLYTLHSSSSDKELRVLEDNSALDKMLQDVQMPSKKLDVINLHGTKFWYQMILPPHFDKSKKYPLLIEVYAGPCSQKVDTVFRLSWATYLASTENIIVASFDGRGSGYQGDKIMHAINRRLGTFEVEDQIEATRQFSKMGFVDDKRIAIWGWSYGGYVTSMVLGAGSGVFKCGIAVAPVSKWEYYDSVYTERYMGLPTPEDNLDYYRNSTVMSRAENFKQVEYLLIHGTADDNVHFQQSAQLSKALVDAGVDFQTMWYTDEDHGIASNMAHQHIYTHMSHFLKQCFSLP

Compound | IC50 [1] | IC50 [2] | In vivo DPIV-inhibition at tmax, i.v. [3] | In vivo DPIV-inhibition at tmax, p.o. [3] | DP I IC50 [1]
Br.CC(=O)OCC(=O)[C@@H]1CCCN1C(=O)[C@@H](NC(=O)[C@H](C)N)C(C)C [H-Ala-Val-Pro-CH2O—CO—CH3*HBr, 2-[(Acetyloxy-methyl)carbonyl]-1-N-[(L)-Alanyl-(L)-Valinyl]-(2S)-pyrrolidine hydrobromide] | 120 µM | 0.0102 µM | 89% | 87% | –
Br.CC(C)[C@H](NC(=O)[C@H](C)N)C(=O)N1CCC[C@H]1C(=O)COC(=O)c1ccccc1 [H-Ala-Val-Pro-CO—CH2O—CO—Ph*HBr, 2-[(Benzoyloxy-methyl)carbonyl]-1-N-[{(L)-Alanyl}-(L)-Valinyl]-(2S)-pyrrolidine hydrobromide] | 316 µM | – | 95% | 68% | –
Br.CC(=O)[C@@H]1CCCN1C(=O)[C@@H](NC(=O)[C@H](C)N)C(C)C [H-Ala-Val-Pro-Me*HBr, 2-Methylcarbonyl-1-N-[(L)-Alanyl-(L)-Valinyl]-(2S)-pyrrolidine hydrobromide] | – | 0.579 µM | – | – | no inhibition
